{"source": "patent US20160263189A1", "about": "“TREATMENT OF A NEURODEGENERATIVE DISEASE OR DISORDER” (ACADIA Pharmaceuticals Inc., priority 2013, published 2016)", "molecules": {"B1": {"name": "GDNF: glial-cell-line-derived neurotrophic factor, a trophic factor (protein, UniProt P39905 78-211, looked up)", "Glial cell line-derived …": "SPDKQMAVLPRRERNRQAAAANPENSRGKGRRGQRGKNRGCVLTAIHLNVTDLGLGYETKEELIFRYCSGSCDAAETTYDKILKNLSRNRRLVSDKVGQACCRPIAFDDDLSFLDDNLVYHILRKHSAKRCGCI"}}, "key": {"Ret": {"tested_on": "Ret", "assay": "Ret immunolabeling in the SNc of 6OHDA-lesioned rats", "format": "in vivo, Sprague-Dawley rats", "conditions": "1 mg/kg/day subcutaneously for 28 days starting 3 days after bilateral 6OHDA infusion into the SNc", "description": "Sprague-Dawley rats received saline infusions (denoted sham) or bilateral infusions of 6OHDA into the SNc (denoted lesion) as described (McFarland et al., 2013). […] A), RET positive cells expressed as % of sham; B), sham; C), vehicle treated lesioned animals; D) bexarotene treated lesioned animals. Shown are representative images of substantia nigral tissue immunolabeled for Ret."}, "[1]": {"tested_on": "primary cultures of dopaminergic neurons previously exposed to alpha-synuclein (α-syn)", "assay": "TH positive neurons in primary cultures of dopaminergic neurons exposed to alpha-synuclein", "format": "cell-based, rat", "conditions": "for increase in TH positive neurons over the α-synuclein alone condition: α-synuclein peptide 250 nM, 96 h; for survival of TH positive neurons compared to the control condition: neurons treated with alpha-synuclein", "protocol": "Cultured neurons were treated as described above. On day 7, the media was removed, and fresh media with the α-synuclein peptide (250 nM) was added. On day 8, the media was removed, and fresh media with the α-synuclein peptide (250 nM) and the indicated drug treatments was added.\nCultured neurons were treated with alpha-synuclein as described above."}, "[2]": {"tested_on": "primary cultures of dopaminergic neurons previously exposed to MPP+", "assay": "TH positive neurons in primary cultures of dopaminergic neurons after MPP+ injury"}}}
{"molecule": "C=C(c1ccc(C(=O)O)cc1)c1cc2c(cc1C)C(C)(C)CCC2(C)C", "note": "[bexarotene, Bexarotene]", "values": [{"measurement": "RET expression relative to sham animals", "setting": "Ret", "value": "increased RET expression above the levels in the sham animals"}, {"measurement": "RET positive cells in the SNc (expressed as % of sham)", "setting": "Ret; vs Lesion/Veh, p<0.05", "value": "reversed the loss of RET positive cells"}, {"measurement": "increase in TH positive neurons over the α-synuclein alone condition", "setting": "[1]; bexarotene alone 10 nM", "value": 8, "unit": "%"}, {"measurement": "survival of TH positive neurons compared to the control condition", "setting": "[1]; bexarotene alone 100 nM", "value": 88, "unit": "%"}, {"measurement": "increase in TH positive neurons over the MPP alone condition", "setting": "[2]; 5 nM bexarotene alone", "value": 9, "unit": "%"}, {"measurement": "% of TH positive cells compared to cells treated with MPP+ alone", "setting": "[2]; 0.3, 1 or 3 nM bexarotene alone, 24 h MPP+ injury (4 μM), drugs for 48 h", "value": "not able to significantly increase"}]}
{"molecule": "B1", "values": [{"measurement": "increase in TH positive neurons over the α-synuclein alone condition", "setting": "[1]; GDNF alone 12.5 ng/ml", "value": 8, "unit": "%"}, {"measurement": "survival of TH positive neurons compared to the control condition", "setting": "[1]; GDNF alone 100 ng/ml", "value": 96, "unit": "%"}, {"measurement": "increase in TH positive neurons over the MPP alone condition", "setting": "[2]; 2 ng/ml GDNF alone", "value": 3, "unit": "%"}]}
